Test results from US20210221785A1, “AMINO-PYRIMIDONYL DERIVATIVES, A PROCESS FOR THEIR PREPARATION AND PHARMACEUTICAL COMPOSITIONS CONTAINING THEM” (LES LABORATOIRES SERVIER, priority 2018, published 2021).

Each molecule was assayed against T1, His-His-USP7 (aa208-560, |C315A|) (Homo sapiens, UniProt Q93009, C315A) (assay: Evaluation of the inhibition of USP7 by the Fluorescence Intensity (FLINT) readings). Settings: 0.25 nM His-His-USP7, compound incubated 60 minutes at 30° C., 500 nM Ubiquitin-Rhodamine-110 substrate; 50% reduction in kinetic rate.
T1 construct: His-His-USP7 (aa208-560, |C315A|); His-His (N)
T1 sequence (Q93009 208-560 C315A): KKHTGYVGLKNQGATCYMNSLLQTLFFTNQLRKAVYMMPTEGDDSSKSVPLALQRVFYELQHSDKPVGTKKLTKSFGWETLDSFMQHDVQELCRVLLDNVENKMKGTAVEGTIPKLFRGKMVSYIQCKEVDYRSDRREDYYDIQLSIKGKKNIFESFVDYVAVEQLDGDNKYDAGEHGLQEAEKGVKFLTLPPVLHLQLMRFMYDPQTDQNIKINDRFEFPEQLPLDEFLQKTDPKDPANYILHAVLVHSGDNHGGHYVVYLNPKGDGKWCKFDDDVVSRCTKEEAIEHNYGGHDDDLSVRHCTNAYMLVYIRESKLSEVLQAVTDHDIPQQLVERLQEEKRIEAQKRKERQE
Format: biochemical
Description: USP7 activity was measured using Rhodamine-110 c-terminal labelled Ubiquitin as a substrate (UbiQ Bio). Incubation with USP7 results in the release of Rhodamine-110 leading to an increase in fluorescence which can be used in the continuous measurement of USP7 activity.
The USP7 reactions were performed in a 50 μL volume, in 384 well black solid low binding plates (Corning #3575). The reaction buffer consisted of 100 mM Bicine pH 8.0, 0.01% TritonX100, 1 mM TCEP, and 10% DMSO.
0.25 nM His-His-USP7 (aa208-560, |C315A|) was incubated with compound (final concentration 10% DMSO) for 60 minutes at 30° C. The reaction was then initiated by the addition of 500 nM Ubiquitin-Rhodamme-110 substrate and the plate read every 3 minutes for 21 minutes to measure the release of Rhodamine-110. Fluorescence Intensity (FLINT) readings were measured using a […] plate reader (Ex.485 nm, Em.535 nm).
The inhibition of increasing doses of compound was expressed as a percentage reduction in kinetic rate compared to the kinetic rates established between ‘DMSO only’ and ‘total inhibition’ controls (no USP7). The inhibitory concentrations that gave a 50% reduction in kinetic rate (IC50) were determined, from 11-point dose response cures, in XL-Fit using a 4-Parameter Logistic Model 205 (Sigmoidal Dose-Response Model).
`CNCc1ccc(Oc2ncn(CC3(O)CCN(C(=O)[C@@H]4CCC(F)(F)C[C@H]4c4ccccc4)CC3)c(=O)c2N)cc1` [Example 60, 5-amino-3-({1-((1R,2R)-4,4-difluoro-2-phenylcyclohexane-1-carbony]-4-hydroxypiperidin-4-yl}methyl)-6-{4-[(methylamino)methyl]phenoxy}pyrimidin-4(3H)-one] showed an IC50 of 6.5 nM.
Molecule `NC(=O)c1cccc(Oc2ncn(CC3(O)CCN(C(=O)[C@@H]4CCC(F)(F)C[C@H]4c4ccccc4)CC3)c(=O)c2N)c1` [Example 62, 3-{[5-amino-1-([1-[(1R,2R)-4,4-difluoro-2-phenylcyclohexane-1-carbonyl]-4-hydroxypiperidin-4-yl]methyl)-6-oxy-1,6-dihydropyrimidin-4-yl]oxy}benzamide] has an IC50 of 100 nM.
In the case of `Nc1c(Oc2cccc(C(=O)O)c2)ncn(CC2(O)CCN(C(=O)[C@@H]3CCC(F)(F)C[C@H]3c3ccccc3)CC2)c1=O` [Example 63], the IC50 is reported as 1620 nM.
`NCc1ccc(Oc2ncn(CC3(O)CCN(C(=O)[C@@H]4CCC(F)(F)C[C@H]4c4ccccc4)CC3)c(=O)c2N)c(Cl)c1` [Example 69, 5-amino-6-[4-(aminomethyl)-2-chlorophenoxyl]-3-({1-[(1R,2R)-4,4-difluoro-2-phenylcyclohexane-1-carbonyl]-4-hydroxypiperidin04-yl}methyl)pyrimidin-4(3H)-one] showed an IC50 of 119 nM.
Molecule `Nc1c(Oc2ccc(CNc3ccccc3)cc2)ncn(CC2(O)CCN(C(=O)[C@@H]3CCC(F)(F)C[C@H]3c3ccccc3)CC2)c1=O` [Example 70, 5-amino-6-[4-(anilinomethyl)phenoxy]-3-({1-[(1R,2R)-4,4-difluoro-2-phenylcyclohexane-1-carbonyl]-4-hydroxypiperidin-4-yl}methyl)pyrimidin-4(3H)-one] has an IC50 of 134 nM.
`Nc1c(Oc2ccc(CN(C=O)CC(F)(F)F)cc2)ncn(CC2(O)CCN(C(=O)[C@@H]3CCC(F)(F)C[C@H]3c3ccccc3)CC2)c1=O` [Example 74, N-[(4-{[5-amino-1-({1-[(1R,2R)-4,4-difluoro-2-phenylcyclohexane-1-carbonyl]-4-hydroxypiperidin-4-yl}methyl)-6-oxo-1,6-dihydropyrimidin-4-yl]oxy}phenyl)methyl]-N-(2,2,2-trifluoroethyl)formamide] showed an IC50 of 227 nM.
With `Nc1c(Oc2ccc(F)cc2)ncn(C[C@]2(O)CCN(C(=O)[C@@H]3CCC(F)(F)C[C@H]3c3ccccc3)CC2(F)F)c1=O` [Example 79, 5-amino-3-({(4R)-1-[(1R,2R)-4,4-difluoro-2-phenylcyclohexane-1-carbonyl]-3,3-difluoro-4-hydroxypiperidin-4-yl}methyl)-6-(4-fluorophenoxy)pyrimidin-4(3H)-one] the IC50 was 228 nM.
`NC(=O)c1ccc(Oc2ncn(CC3(O)CCN(C(=O)[C@@H]4CCC(F)(F)C[C@H]4c4ccccc4)CC3)c(=O)c2N)cc1Cl` [Example 80, 4-{[5-amino-1-({1-[(1R,2R)-4,4-difluoro-2-phenylcyclohexane-1-carbonyl]-4-hydroxypiperidin-4-yl}methyl)-6-oxo-1,6-dihydropyrimidin-4-yl]oxy}-2-chlorobentamide] showed an IC50 of 375 nM.
`NC(=O)c1ccc(Oc2ncn(CC3(O)CCN(C(=O)[C@@H]4CCC(F)(F)C[C@H]4c4ccccc4)CC3)c(=O)c2N)cc1F` [Example 81, 4-{[5-amino-1-({1-[(1R,2R)-4,4-difluoro-2-phenylcyclohexane-1-carbonyl]-4-hydroxypiperidin-4-yl}methyl)-6-oxo-1,6-dihydropyrimidin-4-yl]oxy}-2-fluorobenzamide] was tested, and the IC50 was 403 nM.
`Nc1c(Oc2cccnc2)ncn(CC2(O)CCN(C(=O)C3CCC(F)(F)CC3c3ccccc3)CC2)c1=O` (stereo not drawn) [Example 84, 5-amino-3-({1-[(1,2-trans)-4,4-difluoro-2-phenylcyclohexane-1-carbonyl]-4-hydroxypiperidin-4-yl}methyl)-6-[(pyridin-3-yl)oxy]pyrimidin-4(3H)-one] showed an IC50 of 212 nM.
In the case of `Nc1c(Oc2cnc3cc[nH]c3c2)ncn(CC2(O)CCN(C(=O)[C@@H]3CCC(F)(F)C[C@H]3c3ccccc3)CC2)c1=O` [Example 106, 5-amino-3-([1-[(1R,2R)-4,4-difluoro-2-phenylcyclohexane-1-carbonyl]-4-hydroxypiperidin-4-yl]methyl)-6-[(1H-pyrrolo[3,2-b]pyridin-6-yl)oxy]pyrimidin-4(3H)-one], the IC50 is reported as 152 nM.
With `NC(=O)c1ccc(Oc2ncn(CC3(O)CCN(C(=O)[C@@H]4CCC(F)(F)C[C@H]4c4ccccc4)CC3)c(=O)c2N)c(Cl)c1` [Example 107, 4-{[5-amino-1-({1-[(1R,2R)-4,4-difluoro-2-phenylcyclohexane-1-carbonyl]-4-hydroxypiperidin-4-yl}methyl)6-oxo-1,6-dihydropyrimidin-4-yl]oxy}-3-chlorobenzamide] the IC50 was 479 nM.
Work on `Nc1c(Oc2ccc(CCC3CCNCC3)cc2)ncn(CC2(O)CCN(C(=O)[C@@H]3CCC(F)(F)C[C@H]3c3ccccc3)CC2)c1=O` [Example 112, 5-amino-3-([1-[(1R,2R)-4,4-difluoro-2-phenylcyclohexane-1-carbonyl]-4-hydroxypiperidin-4-yl]methyl)-6-[4-[2-(piperidin-4-yl)ethyl]phenoxy]pyrimidin-4(3H)-one] yielded an IC50 of 70.8 nM.
With `Nc1c(Oc2ccc(CN3CCOCC3)cc2)ncn(CC2(O)CCN(C(=O)[C@@H]3CCC(F)(F)C[C@H]3c3ccccc3)CC2)c1=O` [Example 113, 5-amino-3-({1-[(1R,2R)-4,4-difluoro-2-phenylcyclohexane-1-carbonyl]-4-hydroxypiperidin-4-yl}methyl)-6-{4-[(morpholin-4-yl)methyl]phenoxyl}pyrimidin-4(3H)-one] the IC50 was 140 nM.
With `Nc1c(Oc2ccc(CCC3CCCCN3)cc2)ncn(CC2(O)CCN(C(=O)[C@@H]3CCC(F)(F)C[C@H]3c3ccccc3)CC2)c1=O` (stereo partly drawn) [Example 114, 5-amino-3-({1-[(1R,2R)-4,4-difluoro-2-phenylcyclohexane-1-carbonyl]-4-hydroxypiperidin-4-yl}methyl)-6-{4-[2-(piperidin-2-yl)ethyl]phenoxy}pyrimidin-4(3H)-one] the IC50 was 48.7 nM.
Work on `Nc1c(Oc2ccc([C@@H](N)C(F)(F)F)cc2)ncn(CC2(O)CCN(C(=O)[C@@H]3CCC(F)(F)C[C@H]3c3ccccc3)CC2)c1=O` [Example 116, 5-amino-6-{4-[(1R)-1-amino-2,2,2-trifluoroethyl]phenoxy}-3-({1-[(1R,2R)-4,4-difluoro-2-phenylcyclohexane-1-carbonyl]-4-hydroypiperidin-4-yl}methyl)pyrimidin-4(3H)-one] yielded an IC50 of 86.2 nM.
Molecule `Nc1c(Oc2ccc(F)cc2)ncn(CC2(O)CCN(C(=O)[C@@H]3CC[C@@](F)(C#Cc4ccccn4)C[C@H]3c3ccccc3)CC2)c1=O` [Example 131, 5-amino-3-[(1-{[(1R,2R,4S)-4-fluoro-2-phenyl-4-[2-(pyridin-2-yl)ethynyl]cyclohexyl]carbonyl}-4-hydroxypiperidin-4-yl)methyl]-6-(4-fluorophenoxy)pyrimidin-4-one] has an IC50 of 21.8 nM.
Molecule `Nc1c(Oc2ccc(F)cc2)ncn(CC2(O)CCN(C(=O)[C@@H]3CC[C@](F)(C#Cc4ccccc4)C[C@H]3c3ccccc3)CC2)c1=O` [Example 135, 5-amino-3-({1-[(1R,2R,4R)-4-fluoro-2-phenyl-4-(2-phenylethynyl)cyclohexanecarbonyl]-4-hydroxypiperidin-4-yl}methyl)-6-(4-fluorophenoxy)-3,4-dihydropyrimidin-4-one] has an IC50 of 36.4 nM.
